In patent publication US20070275962A1, “Heterobicyclic Compounds as Pharmaceutically Active Agents” (GPC BIOTECH AG, priority 2003, published 2007):

Assays:
[1] = molecular target: T1, mycobacterial protein kinase G (PknG) (Mycobacterium tuberculosis, UniProt P9WI73); test: biochemical; settings: read-out: Inhibition of PknG (IC50, [μM])
T1 construct: GST; made in house; host or cells: E. coli BL21

RICK-STREP 1 = molecular target: T2, RICK-STREP 1 (Homo sapiens, UniProt O43353); test: General kinase assay: RICK; assay type: biochemical; settings: concentration 10 μM; read-out: Inhibitory effect on Target RICK-STREP 1
T2 construct: Strep
T2 sequence (O43353 whole entry): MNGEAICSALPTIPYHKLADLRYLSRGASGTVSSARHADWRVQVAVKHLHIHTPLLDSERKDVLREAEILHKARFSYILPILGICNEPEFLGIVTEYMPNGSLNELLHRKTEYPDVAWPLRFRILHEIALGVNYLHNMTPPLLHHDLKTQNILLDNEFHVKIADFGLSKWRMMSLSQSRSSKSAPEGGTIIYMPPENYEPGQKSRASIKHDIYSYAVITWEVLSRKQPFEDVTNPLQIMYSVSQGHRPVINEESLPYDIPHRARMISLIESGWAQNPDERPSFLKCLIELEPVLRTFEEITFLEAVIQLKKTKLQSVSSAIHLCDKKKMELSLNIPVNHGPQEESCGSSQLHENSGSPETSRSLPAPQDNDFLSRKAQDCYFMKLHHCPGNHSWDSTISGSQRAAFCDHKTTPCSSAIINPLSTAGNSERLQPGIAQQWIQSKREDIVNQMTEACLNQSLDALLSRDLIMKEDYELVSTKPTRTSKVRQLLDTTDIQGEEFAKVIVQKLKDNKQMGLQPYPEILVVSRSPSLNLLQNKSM
Procedure: (§1) General Assay Protocol for all Kinases [[[…]]] [[[…]]] Reaction Buffer: Final Assay Concentrations: [[[…]]] Pipetting Sequence: • 1) Add 8 μl 50 μM MBP in Reaction Buffer to each well of Assay Plate • 2) Add 10 μl 500 mM EDTA in H2O to C- wells • 3) Add 8 μl 62.5 μCi/ml Adenosine 5'-[γ-^33P]triphosphate+5 μM ATP in Reaction Buffer to each well • 4) Add 8 μl 5 fold concentrated inhibitor in 5% DMSO in Reaction Buffer to each well except to C- and C+ wells • 5) Add 8 μl 5% DMSO in Reaction Buffer to C- and C+ wells • 6) Add 8 μl 5 fold concentrated kinase in Reaction Buffer to each well • 7) Incubate 1 hr at room temperature • 8) Add 10 μl 50 mM EDTA in H2O to each well except to C- wells • 9) Prepare MAPH plates by adding 200 μl 0.75% H3PO4 to each well • 10) Exhaust 0.75% H3PO4 using Millipore vacuum station • 11) Add 60 μl 0.75% H3PO4 to each well of MAPH Filter Plate • 12) Transfer 30 μl sample per well from Assay Plate to corresponding well of MAPH Filter Plate • 13) Incubate 30 min at room temperature • 14) Wash each well of MAPH Filter Plates 3× with 200 μl 0.75% H3PO4 using Millipore vacuum station • 15) Add 20 μl Szintilation Liquid to each well of MAPH Filter Plate • 16) Seal MAPH Filter Plate • 17) Store MAPH Filter Plate 30 min in darkness • 18) Quantify radioactivity

CK1-alpha GST = molecular target: T3, CK1-alpha GST (Homo sapiens, UniProt P48729); test: General kinase assay: CK1-alpha; assay type: biochemical; settings: concentration 10 μM; read-out: Inhibitory effect on Target CK1-alpha GST
T3 construct: GST
T3 sequence (P48729 whole entry): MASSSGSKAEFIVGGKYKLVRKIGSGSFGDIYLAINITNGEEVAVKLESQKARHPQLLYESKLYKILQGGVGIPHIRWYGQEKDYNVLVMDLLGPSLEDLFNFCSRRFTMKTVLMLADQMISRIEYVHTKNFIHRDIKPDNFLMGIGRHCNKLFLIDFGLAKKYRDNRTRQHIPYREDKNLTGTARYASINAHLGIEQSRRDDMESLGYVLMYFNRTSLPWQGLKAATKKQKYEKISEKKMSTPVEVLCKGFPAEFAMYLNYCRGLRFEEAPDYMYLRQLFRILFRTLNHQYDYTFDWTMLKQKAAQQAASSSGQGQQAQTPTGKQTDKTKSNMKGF
Procedure: as §1

SRPK1 GST = molecular target: T4, SRPK1 GST (Homo sapiens, UniProt Q96SB4); test: General kinase assay: SRPK1; assay type: biochemical; settings: concentration 10 μM; read-out: Inhibitory effect on Target SRPK1 GST
T4 construct: GST
T4 sequence (Q96SB4 whole entry): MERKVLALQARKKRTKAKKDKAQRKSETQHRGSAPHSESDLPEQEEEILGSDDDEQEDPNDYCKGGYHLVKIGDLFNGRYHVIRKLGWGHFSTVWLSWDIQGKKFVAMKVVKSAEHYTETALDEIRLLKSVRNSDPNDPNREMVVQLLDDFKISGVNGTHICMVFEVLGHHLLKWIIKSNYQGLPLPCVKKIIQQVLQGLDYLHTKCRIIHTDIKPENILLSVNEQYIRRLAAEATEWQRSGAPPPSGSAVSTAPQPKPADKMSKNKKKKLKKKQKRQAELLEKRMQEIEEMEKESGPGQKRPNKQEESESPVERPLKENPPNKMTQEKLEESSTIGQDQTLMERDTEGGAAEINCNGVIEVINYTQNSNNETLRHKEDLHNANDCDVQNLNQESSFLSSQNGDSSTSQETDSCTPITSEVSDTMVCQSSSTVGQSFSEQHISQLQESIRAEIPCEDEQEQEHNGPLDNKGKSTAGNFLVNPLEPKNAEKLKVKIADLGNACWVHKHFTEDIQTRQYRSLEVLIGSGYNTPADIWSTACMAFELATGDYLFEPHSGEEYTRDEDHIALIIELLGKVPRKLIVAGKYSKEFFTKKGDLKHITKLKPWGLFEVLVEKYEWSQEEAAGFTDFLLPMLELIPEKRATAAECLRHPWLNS
Procedure: as §1

PDGFRbeta GST = molecular target: T5, PDGFRbeta GST (Homo sapiens, UniProt P09619); test: General kinase assay: PDGFRbeta; assay type: biochemical; settings: concentration 10 μM; read-out: Inhibitory effect on Target PDGFRbeta GST
T5 construct: GST
T5 sequence (P09619 33-1106): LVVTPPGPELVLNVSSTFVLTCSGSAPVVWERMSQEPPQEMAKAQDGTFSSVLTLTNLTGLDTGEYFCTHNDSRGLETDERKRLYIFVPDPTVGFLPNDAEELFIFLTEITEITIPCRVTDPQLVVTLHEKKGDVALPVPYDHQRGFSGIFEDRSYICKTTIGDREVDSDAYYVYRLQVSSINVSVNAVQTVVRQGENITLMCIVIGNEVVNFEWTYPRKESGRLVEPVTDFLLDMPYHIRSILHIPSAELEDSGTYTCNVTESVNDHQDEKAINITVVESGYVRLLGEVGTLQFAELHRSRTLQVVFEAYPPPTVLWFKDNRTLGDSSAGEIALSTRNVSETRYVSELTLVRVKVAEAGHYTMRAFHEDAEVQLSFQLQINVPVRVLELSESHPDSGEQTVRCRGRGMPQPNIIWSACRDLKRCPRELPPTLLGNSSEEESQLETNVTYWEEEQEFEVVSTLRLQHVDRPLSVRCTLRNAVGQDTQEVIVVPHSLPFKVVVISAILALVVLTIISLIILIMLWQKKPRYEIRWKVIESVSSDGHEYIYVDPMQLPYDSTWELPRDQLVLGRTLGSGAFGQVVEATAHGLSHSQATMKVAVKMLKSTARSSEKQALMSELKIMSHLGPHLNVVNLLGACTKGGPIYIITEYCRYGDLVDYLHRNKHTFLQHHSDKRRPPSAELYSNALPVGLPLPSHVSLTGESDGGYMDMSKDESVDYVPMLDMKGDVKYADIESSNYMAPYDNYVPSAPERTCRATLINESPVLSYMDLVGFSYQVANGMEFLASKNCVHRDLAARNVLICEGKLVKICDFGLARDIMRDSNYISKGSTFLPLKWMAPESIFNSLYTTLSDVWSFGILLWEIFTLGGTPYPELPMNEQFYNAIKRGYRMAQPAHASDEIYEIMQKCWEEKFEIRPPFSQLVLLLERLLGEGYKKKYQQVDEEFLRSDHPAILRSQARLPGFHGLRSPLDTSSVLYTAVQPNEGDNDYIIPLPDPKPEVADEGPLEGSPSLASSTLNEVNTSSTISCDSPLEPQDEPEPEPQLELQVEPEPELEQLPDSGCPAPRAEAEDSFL
Procedure: as §1

CDK2/CycA = CDK2/CycA (Homo sapiens, UniProt P24941); test: General kinase assay: CDK2/CycA; assay type: biochemical; settings: concentration 10 μM; read-out: Inhibitory effect on Target CDK2/CycA
Procedure: as §1

GSK-3beta HIS = molecular target: T6, GSK-3beta HIS (Homo sapiens, UniProt P49841); test: General kinase assay: GSK-3beta; assay type: biochemical; settings: concentration 10 μM; read-out: Inhibitory effect on Target GSK-3beta HIS
T6 construct: His
T6 sequence (P49841 whole entry): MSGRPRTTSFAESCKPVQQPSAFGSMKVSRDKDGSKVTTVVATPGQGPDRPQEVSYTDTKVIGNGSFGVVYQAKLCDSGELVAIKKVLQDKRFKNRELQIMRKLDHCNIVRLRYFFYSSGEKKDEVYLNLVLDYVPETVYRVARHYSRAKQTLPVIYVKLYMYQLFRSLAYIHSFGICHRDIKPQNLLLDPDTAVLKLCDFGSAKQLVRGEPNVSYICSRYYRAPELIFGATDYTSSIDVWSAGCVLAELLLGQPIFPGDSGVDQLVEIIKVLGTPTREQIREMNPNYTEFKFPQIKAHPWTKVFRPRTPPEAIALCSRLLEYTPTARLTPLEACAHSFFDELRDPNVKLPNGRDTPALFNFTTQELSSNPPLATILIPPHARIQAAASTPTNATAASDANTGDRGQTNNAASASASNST
Procedure: as §1

T1 sequence (P9WI73 whole entry): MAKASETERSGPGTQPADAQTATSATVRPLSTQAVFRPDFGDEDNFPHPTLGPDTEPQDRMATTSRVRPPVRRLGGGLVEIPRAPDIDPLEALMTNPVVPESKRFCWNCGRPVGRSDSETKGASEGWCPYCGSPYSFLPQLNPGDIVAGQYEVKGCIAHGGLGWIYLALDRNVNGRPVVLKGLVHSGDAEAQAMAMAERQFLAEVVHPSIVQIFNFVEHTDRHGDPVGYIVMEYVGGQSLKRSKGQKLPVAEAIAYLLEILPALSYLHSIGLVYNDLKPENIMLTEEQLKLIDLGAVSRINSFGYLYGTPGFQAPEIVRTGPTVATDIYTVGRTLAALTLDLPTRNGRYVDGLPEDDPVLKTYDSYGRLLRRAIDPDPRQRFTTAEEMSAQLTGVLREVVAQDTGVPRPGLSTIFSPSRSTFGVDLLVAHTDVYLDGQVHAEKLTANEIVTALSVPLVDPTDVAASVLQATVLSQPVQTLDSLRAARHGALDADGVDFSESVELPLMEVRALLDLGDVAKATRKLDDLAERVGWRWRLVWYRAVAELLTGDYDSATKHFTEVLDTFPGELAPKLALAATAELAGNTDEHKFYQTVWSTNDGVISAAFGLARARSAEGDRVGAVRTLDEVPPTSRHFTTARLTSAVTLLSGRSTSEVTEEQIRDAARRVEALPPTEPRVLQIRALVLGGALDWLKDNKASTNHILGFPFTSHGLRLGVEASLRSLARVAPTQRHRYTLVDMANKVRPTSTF

`NC(=O)c1c(NC(=O)C2CC2)sc2cc(OCC(=O)NCCO)ccc12` [Compound A8, 2-(Cyclopropanecarbonyl-amino)-6-[(2-hydroxy-ethylcarbamoyl)-methoxy]-benzo[b]thiophene-3-carboxylic acid amide] showed an IC50 [1] of 0.1 to 1 µM.
`CCN(CC)C(=O)c1cc2c(C(N)=O)c(NC(=O)C3CC3)sc2cc1O` [Compound A17, 2-(Cyclopropanecarbonyl-amino)-6-hydroxy-benzo[b]thiophene-3,5-dicarboxylic acid 3-amide-5-diethylamid] showed an IC50 [1] of 1.1 to 10 µM.
Compound `NC(=O)c1c(NC(=O)C2CC2)sc2cc(OCCO)ccc12` [Compound A20, 2-(Cyclopropanecarbonyl-amino)-6-(2-hydroxy-ethoxy)-benzo[b]thiophene-3-carboxylic acid amide] has an IC50 [1] of 0.1 to 1 µM.
`NC(=O)c1c(NC(=O)C2CC2)sc2c(Br)c(O)c(Br)cc12` [Compound A38, 5,7-Dibromo-2-(cyclopropanecarbonyl-amino)-6-hydroxy-benzo[b]thiophene-3-carboxylic acid amide] was tested, and the IC50 [1] was < 0.1 µM.
`NC(=O)c1c(NC(=O)C2CC2)sc2c1CCOC2` [Compound B1, 2-(Cyclopropanecarbonyl-amino)4,7-dihydro-5H-thieno[2,3-c]pyran-3-carboxylic acid amide] showed an IC50 [1] of 0.1 to 1 µM.
For `CC(C)C(=O)Nc1sc2c(c1C(N)=O)CCOC2` [Compound B2, 2-Isobutyrylamino-4,7-dihydro-5H-thieno[2,3-c]pyran-3-carboxylic acid amide], the IC50 [1] was > 10 µM.
`NC(=O)c1c(NC(=O)C2CCCC2)sc2c1CCOC2` [Compound B10, 2-(Cyclopentanecarbonyl-amino)-4,7-dihydro-5H-thieno[2,3-c]pyran-3-carboxylic acid amide] was tested, and the IC50 [1] was 1.1 to 10 µM.
`CCC(C)C(=O)Nc1sc2c(c1C(N)=O)CCOC2` (stereo not drawn) [Compound B14, 2-(2-Methyl-butyrylamino)-4 ,7-dihydro-5H-thieno[2,3-c]pyran-3-carboxylic acid amide] was tested, and the IC50 [1] was > 10 µM.
Work on `NC(=O)c1c(NC(=O)C2CCC2)sc2c1CCOC2` [Compound B15, 2-(Cyclobutanecarbonyl-amino)-4,7-dihydro-5H-thieno[2,3-c]pyran-3-carboxylic acid amide] yielded an IC50 [1] of 1.1 to 10 µM.
In the case of `CC=CC(=O)Nc1sc2c(c1C(N)=O)CCOC2` [Compound B16, 2-But-2-enoylamino-4,7-dihydro-5H-thieno[2,3-c]pyran-3-carboxylic acid amide], the IC50 [1] is reported as 1.1 to 10 µM.
For `CC(C)=CC(=O)Nc1sc2c(c1C(N)=O)CCOC2` [Compound B17, 2-(3-Methyl-but-2-enoylamino)-4,7-dihydro-5H-thieno[2,3-c]pyran-3-carboxylic acid amide], the IC50 [1] was 1.1 to 10 µM.
With `CC(C)(C)C(=O)Nc1sc2c(c1C(N)=O)CCOC2` [Compound B18, 2-(2,2-Dimethyl-propionylamino)-4,7-dihydro-5H-thieno[2,3-c]pyran-3-carboxylic acid amide] the IC50 [1] was > 10 µM.
For `NC(=O)c1c(NC(=O)Nc2ccncc2)sc2c1CCOC2` [Compound B73, 2-(3-Pyridin-4-yl-ureido]-4,7-dihydro-5H-thieno[2,3-c]pyran-3-carboxylic acid amide], the inhibition at 10 µM (RICK-STREP 1) was > 50%, the inhibition at 10 µM (CK1-alpha GST) was > 50% and the inhibition at 10 µM (SRPK1 GST) was > 50%.
`NC(=O)c1c(NC(=O)NCCc2cccs2)sc2c1CCOC2` [Compound B75, 2-[3-(2-Thiophen-2-yl-ethyl)-ureido]-4,7-dihydro-5H-thieno[2,3-c]pyran-3-carboxylic acid amide] showed an IC50 [1] of 0.1 to 1 µM.
`CCOC(=O)N1CCC(NC(=O)Nc2sc3c(c2C(N)=O)CCOC3)CC1` [Compound B181, 4-[3-(3-Carbamoyl-4,7-dihydro-5H-thieno[2,3-c]pyran-2-yl)-ureido]-piperidine-1-carboxylic-acid ethyl ester] was tested, and the IC50 [1] was 1.1 to 10 µM.
For `NC(=O)c1c(NC(=O)C2CC2)sc2c1CC[S+]([O-])C2` (stereo not drawn) [Compound C2, 2-(Cyclopropanecarbonyl-amino)-6-oxo-4,5,6,7-tetrahydro-6λ^4-thieno[2,3-c]thiopyran-3-carboxylic acid amide], the IC50 [1] was > 10 µM.
`Cc1ccccc1CNC(=O)Nc1sc2c(c1C(N)=O)CCSC2` [Compound C33, 2-[3-(2-Methyl-benzyl)-ureido]-4,7-dihydro-5H-thieno[2,3-c]thiopyran-3-carboxylic acid amide] was tested, and the IC50 [1] was > 10 µM.
With `NC(=O)c1c(NC(=O)Nc2ccc(F)cc2)sc2c1CCSC2` [Compound C45, 2-[3-(4-Fluoro-phenyl)-ureido]-4,7-dihydro-5H-thieno[2,3-c]thiopyran-3-carboxylic acid amide] the inhibition at 10 µM (RICK-STREP 1) was > 50%, the inhibition at 10 µM (PDGFRbeta GST) was > 50% and the inhibition at 10 µM (SRPK1 GST) was > 50%. The IC50 [1] was 0.1 to 1 µM, the inhibition at 10 µM (CDK2/CycA) was > 50% and the inhibition at 10 µM (GSK-3beta HIS) was > 50%.
`NC(=O)c1c(NC(=O)Nc2ccc(Oc3ccccc3)cc2)sc2c1CCSC2` [Compound C49, 2-[3-(4-Phenoxy-phenyl)-ureido]-4,7-dihydro-5H-thieno[2,3-c]thiopyran-3-carboxylic acid amide] showed an IC50 [1] of 1.1 to 10 µM.
Compound `NC(=O)c1c(NC(=O)C2CCC2)sc2c1CCCC2` [Compound D9, 2-(Cyclobutanecarbonylamino)-4,5,6,7-tetrahydro-benzo[b]thiophene-3-carboxylic acid amide] has an IC50 [1] of 1.1 to 10 µM.
For `C=CCNC(=S)Nc1sc2c(c1C(N)=O)CCCC2` [Compound D32, 2-(3-Allyl-thioureido)-4,5,6,7-tetrahydro-benzo[b]thiophene-3-carboxylic acid amide], the IC50 [1] was 1.1 to 10 µM.
`CC1CCc2sc(NC(=O)C3CC3)c(C(N)=O)c2C1` (stereo not drawn) [Compound D37, 2-(Cyclopropanecarbonyl-amino)-5-methyl-4,5,6,7-tetrahydro-benzo[b]thiophene-3-carboxylic acid amide] was tested, and the IC50 [1] was < 0.1 µM.
With `NC(=O)c1c(NC(=O)C2CC2)sc2c1CCC/C2=N\OCc1ccccc1` [Compound D72, E-7-Benzyloxyimino-2-(cyclopropanecarbonyl-amino)-4,5,6,7-tetrahydro-benzo[b]thiophene-3-carboxylic acid amide] the IC50 [1] was < 0.1 µM.
With `CO/N=C1/CCCc2c1sc(NC(=O)C1CC1)c2C(N)=O` [Compound D88, Z-2-(Cyclopropanecarbonyl-amino)-7-methoxyimino-4,5,6,7-tetrahydro-benzo[b]thiophene-3-carboxylic acid amide] the IC50 [1] was < 0.1 µM.
`CC1OCc2sc(NC(=O)C3CC3)c(C(N)=O)c21` (stereo not drawn) [Compound D96, 2-(Cyclopropanecarbonyl-amino)-4-methyl-4,6-dihydro-thieno[2,3-c]furan-3-carboxylic acid amide] was tested, and the IC50 [1] was 1.1 to 10 µM.
`COc1ccc(NC(=O)Nc2sc3c(c2C(N)=O)CCC(=O)C3)cc1` [Compound D106, 2-[3-(4-Methoxy-phenyl)-ureido]-6-oxo-4,5,6,7-tetrahydro-benzo[b]thiophene-3-carboxylic acid amide] gave an IC50 [1] of 0.1 to 1 µM.
For `NC(=O)c1c(NC(=O)C2CC2)sc2c1CCC(=NO)C2` [Compound D134, 2-(Cyclopropanecarbonyl-amino)-6-hydroxyimino-4,5,6,7-tetrahydro-benzo[b]thiophene-3-carboxylic acid amide], the inhibition at 10 µM (RICK-STREP 1) was > 50%, the inhibition at 10 µM (CK1-alpha GST) was > 50% and the inhibition at 10 µM (GSK-3beta HIS) was > 50%.
For `NC(=O)c1c(NC(=O)Nc2ccc(I)cc2)sc2c1CCC1(C2)OCCO1` [Compound D175, 2-({[(4-Iodophenyl)amino]carbonyl}amino)-4,7-dihydro-5H-spiro[1-benzothiophene-6,2′-[1,3]dioxolane]-3-carboxamide], the IC50 [1] was 0.1 to 1 µM.
For `NC(=O)c1c(NC(=O)C2CC2)sc2c1CCC2` [Compound D196, 2-(Cyclopropanecarbonyl-amino)-5,6-dihydro-4H-cyclopenta[b]thiophene-3-carboxylic acid amide], the IC50 [1] was < 0.1 µM.
In the case of `NC(=O)c1c(NC(=O)Nc2ccc3c(c2)OCO3)sc2c1CCC(O)C2` (stereo not drawn) [Compound D212, 2-(3-Benzo[1,3]dioxol-5-yl-ureido)-6-hydroxy-4,5,6,7-tetrahydro-benzo[b]thiophene-3-carboxylic acid amide], the IC50 [1] is reported as 0.1 to 1 µM.
